Paper PMC9420858, “Synthesis, bioactivity, and molecular docking of novel arylpiperazine derivatives as potential AR antagonists” (Frontiers in Chemistry, 2022)

Columns and labels:
RWPE-1 cells = assay: Cytotoxicity, CCK-8 assay, RWPE-1 normal prostate epithelial cells; type: cell-based; details: RWPE-1 normal non-cancer human prostate epithelial cell line, 24 h, mean ± SD of three experiments
Protocol: (§1) The antiproliferative activity of compounds 5–26 was assessed using the CCK-8 assay ([Chen et al., 2016]; [Chen et al., 2017]; [Chen et al., 2018]; [Han et al., 2020]; [Guo et al., 2021]; [Hu et al., 2022]; [Zhou et al., 2022]). The 96-well plates (1×10^5 cells/mL) were seeded with cells in a medium, the plates were cultured at 37 °C for 24 h, then different concentrations of tested drugs were added, and the plates were cultured for 24 h. After 24 h, 10 μL of CCK-8 solution (5 mg/ml) was added to the wells, and the cells were cultured for 1 h at 37°C. Cell growth inhibition was performed by measuring the absorbance at 450 nm using a microplate reader, and the percentage of cell growth inhibition was then calculated for each tested drug.
(§2) Antiproliferative activity of the novel arylpiperazine derivatives was firstly evaluated against LNCaP cells using the CCK-8 assay. […] Naftopidil and finasteride ([Banday et al., 2014]) were used as control compounds. RWPE-1 cells were used to compare their toxicity. To clarify whether the antiproliferative activity was related to any interference with AR function, the AR antagonist effect was evaluated using the luciferase reporter gene assay. […] The AR luciferase assays were conducted under the co-treatment of 1 nM AR agonist R1881, and the antagonistic activity was measured by inhibiting the R1881-induced luciferase expression.

LNCaP cells = assay: Antiproliferative activity, CCK-8 assay, LNCaP cells; type: cell-based; details: Homo sapiens, LNCaP, 24 h, LNCaP human prostate cancer cell line, mean ± SD of three experiments
Protocol: as §1, §2

PC-3 cells = assay: Antiproliferative activity, CCK-8 assay, PC-3 cells; type: cell-based; details: PC-3 human prostate cancer cell line, 24 h, mean ± SD of three experiments
Protocol: as §1, §2

Structure (SMILES)	IC50 (RWPE-1 cells) [µM]	IC50 (LNCaP cells) [µM]	IC50 (PC-3 cells) [µM]	melting point [°C]
c1ccc(CN2CCN(CCc3ccc(COc4ccc5c(c4)CCC5)cc3)CC2)cc1 [Compound 6, 1-(4-((2,3-dihydro-1H-inden-5-yloxy)methyl)phenethyl)-4-benzylpiperazine]	11.6 ± 0.21	23.45 ± 0.12	11.3 ± 0.15	71.1 to 73.3
c1ccc(N2CCN(CCc3ccc(COc4ccc5c(c4)CCC5)cc3)CC2)nc1 [Compound 7, 1-(4-((2,3-dihydro-1H-inden-5-yloxy)methyl)phenethyl)-4-(pyridin-2-yl)piperazine]	7.68 ± 0.15	15.29 ± 0.13	> 50	90.1 to 91.8
Cc1cccc(N2CCN(CCc3ccc(COc4ccc5c(c4)CCC5)cc3)CC2)c1 [Compound 9, 1-(4-((2,3-dihydro-1H-inden-5-yloxy)methyl)phenethyl)-4-m-tolylpiperazine]	11 ± 0.16	42.68 ± 0.14	> 50	61.2 to 62.7
Cc1ccc(N2CCN(CCc3ccc(COc4ccc5c(c4)CCC5)cc3)CC2)cc1 [Compound 10, 1-(4-((2,3-dihydro-1H-inden-5-yloxy)methyl)phenethyl)-4-p-tolylpiperazine]	9.24 ± 0.23	20.9 ± 0.22	17.2 ± 0.21	105.1 to 106.3
Cc1ccc(C)c(N2CCN(CCc3ccc(COc4ccc5c(c4)CCC5)cc3)CC2)c1 [Compound 11, 1-(4-((2,3-dihydro-1H-inden-5-yloxy)methyl)phenethyl)-4-(2,5-dimethylphenyl)piperazine]	> 50	> 50	4.31 ± 0.13	70.4 to 71.5
CCOc1ccccc1N1CCN(CCc2ccc(COc3ccc4c(c3)CCC4)cc2)CC1 [Compound 13, 1-(4-((2,3-dihydro-1H-inden-5-yloxy)methyl)phenethyl)-4-(2-ethoxyphenyl)piperazine]	> 50	> 50	> 50	65.2 to 66.1
Fc1ccccc1N1CCN(CCc2ccc(COc3ccc4c(c3)CCC4)cc2)CC1 [Compound 16, 1-(4-((2,3-dihydro-1H-inden-5-yloxy)methyl)phenethyl)-4-(2-fluorophenyl)piperazine]	> 50	18.56 ± 0.17	> 50	64.2 to 65.3
Fc1ccc(N2CCN(CCc3ccc(COc4ccc5c(c4)CCC5)cc3)CC2)cc1 [Compound 17, 1-(4-((2,3-dihydro-1H-inden-5-yloxy)methyl)phenethyl)-4-(4-fluorophenyl)piperazine]	> 50	17.92 ± 0.13	1.45 ± 0.17	79.8 to 80.5
Fc1ccc(N2CCN(CCc3ccc(COc4ccc5c(c4)CCC5)cc3)CC2)c(F)c1 [Compound 18, 1-(4-((2,3-dihydro-1H-inden-5-yloxy)methyl)phenethyl)-4-(2,4-difluorophenyl)piperazine]	> 50	10.7 ± 0.14	1.92 ± 0.24	86.1 to 86.5
Clc1cccc(N2CCN(CCc3ccc(COc4ccc5c(c4)CCC5)cc3)CC2)c1 [Compound 20, 1-(4-((2,3-dihydro-1H-inden-5-yloxy)methyl)phenethyl)-4-(3-chlorophenyl)piperazine]	> 50	16.98 ± 0.15	1.56 ± 0.14	83.2 to 84.3
Cc1ccc(Cl)cc1N1CCN(CCc2ccc(COc3ccc4c(c3)CCC4)cc2)CC1 [Compound 23, 1-(4-((2,3-dihydro-1H-inden-5-yloxy)methyl)phenethyl)-4-(5-chloro-2-methylphenyl)piperazine]	> 50	12.6 ± 0.22	0.95 ± 0.14	87.4 to 88.3
COc1ccccc1N1CCN(CC(O)COc2cccc3ccccc23)CC1 (centres unmarked) [Naftopidil, reference compound]	> 50	22.4 ± 0.61	42.1 ± 0.79	
